The source of these data is ChEMBL document CHEMBL1153696, “Hypoglycemic polysaccharides from the tuberous root of Liriope spicata” (2009).

Active and inactive are the calls of the source. The rule behind the calls is not given here.

Assay [1] relates to Mus musculus. The assay is described as follows: Antidiabetic activity in BALB/c mouse type 2 diabetic model assessed as reduction of fasting blood glucose level at 200 mg/kg, po QD measured after 1 week by glucometry (Rvb=14.89 +/- 1.37 mmol/L). Format: functional.
Assay [2] relates to Mus musculus. The assay is described as follows: Antidiabetic activity in BALB/c mouse type 2 diabetic model assessed as reduction of fasting blood glucose level at 100 mg/kg, po QD measured after 1 week by glucometry (Rvb=14.89 +/- 1.37 mmol/L). It counts as functional.
Assay [3] relates to Mus musculus. The assay is described as follows: Antidiabetic activity in BALB/c mouse type 2 diabetic model assessed as reduction of fasting blood glucose level at 200 mg/kg, po QD measured after 2 weeks by glucometry (Rvb=14.86 +/- 1.58 mmol/L). Format: functional.
Assay [4] has as its system Mus musculus. In words: Antidiabetic activity in BALB/c mouse type 2 diabetic model assessed as reduction of fasting blood glucose level at 100 mg/kg, po QD measured after 2 weeks by glucometry (Rvb=14.86 +/- 1.58 mmol/L). It counts as functional.
The subject of assay [5] is Mus musculus. In words: Antidiabetic activity in BALB/c mouse type 2 diabetic model assessed as reduction of fasting blood glucose level at 200 mg/kg, po QD measured after 3 weeks by glucometry (Rvb=14.89 +/- 1.42 mmol/L). Format: functional.
Assay [6] relates to Mus musculus. In words: Antidiabetic activity in BALB/c mouse type 2 diabetic model assessed as reduction of fasting blood glucose level at 100 mg/kg, po QD measured after 3 weeks by glucometry (Rvb=14.89 +/- 1.42 mmol/L). Format: functional.
Assay [7] relates to Mus musculus. In words: Antidiabetic activity in BALB/c mouse type 2 diabetic model assessed as reduction of fasting blood glucose level at 200 mg/kg, po QD measured after 4 weeks by glucometry (Rvb=15.03 +/- 1.47 mmol/L). It counts as functional.
The test system of assay [8] is Mus musculus. The assay is described as follows: Antidiabetic activity in BALB/c mouse type 2 diabetic model assessed as reduction of fasting blood glucose level at 100 mg/kg, po QD measured after 4 weeks by glucometry (Rvb=15.03 +/- 1.47 mmol/L). It counts as functional.
For assay [9], the system named is Mus musculus. In words: Hypoglycemic effect in type 2 diabetic BALB/c mouse model assessed as reduction in blood glucose excursion at 100 to 200 mg/kg, po pretreated 60 mins before glucose challenge measured up to 3 hrs by one-touch glucometer relative to diabetic control. Format: functional, organism-based.
For assay [10], the system named is Mus musculus. The assay is described as follows: Hypoglycemic effect in type 2 diabetic BALB/c mouse model assessed as reduction in blood glucose excursion at 2 mg/kg, po pretreated 60 mins before glucose challenge measured up to 3 hrs by one-touch glucometer relative to diabetic control. It counts as functional, organism-based. The arrangement: dose 2 mg/kg.
In assay [11] the test system is Mus musculus. In words: Antidiabetic activity in BALB/c mouse type 2 diabetic model assessed as reduction of fasting blood glucose level at 2 mg/kg, po QD measured after 1 week by glucometry (Rvb=14.89 +/- 1.37 mmol/L). It counts as functional.
Assay [12] has as its system Mus musculus. In words: Antidiabetic activity in BALB/c mouse type 2 diabetic model assessed as reduction of fasting blood glucose level at 2 mg/kg, po QD measured after 2 weeks by glucometry (Rvb=14.86 +/- 1.58 mmol/L). It counts as functional.
In assay [13] the test system is Mus musculus. The assay is described as follows: Antidiabetic activity in BALB/c mouse type 2 diabetic model assessed as reduction of fasting blood glucose level at 2 mg/kg, po QD measured after 3 weeks by glucometry (Rvb=14.89 +/- 1.42 mmol/L). It counts as functional.
In assay [14] the test system is Mus musculus. The assay is described as follows: Antidiabetic activity in BALB/c mouse type 2 diabetic model assessed as reduction of fasting blood glucose level at 2 mg/kg, po QD measured after 4 weeks by glucometry (Rvb=15.03 +/- 1.47 mmol/L). It counts as functional.

For `OC[C@H]1O[C@@](CO)(OC[C@H]2O[C@@](CO[C@]3(CO[C@]4(CO)O[C@H](CO)[C@@H](O)[C@@H]4O)O[C@H](CO)[C@@H](O)[C@@H]3O)(OC[C@@]3(OC[C@@]4(OC[C@@]5(OC[C@@]6(OC[C@@]7(OC[C@@]8(OC[C@@]9(OC[C@@]%10(OC[C@@]%11(OC[C@@]%12(OC[C@@]%13(OC[C@@]%14(OC[C@@]%15(OC[C@@]%16(OC[C@@]%17(OC[C@@]%18(O[C@@H]%19O[C@H](CO)[C@@H](O)[C@H](O)[C@H]%19O)O[C@H](CO)[C@@H](O)[C@@H]%18O)O[C@H](CO[C@]%18(CO)O[C@H](CO)[C@@H](O)[C@@H]%18O)[C@@H](O)[C@@H]%17O)O[C@H](CO)[C@@H](O)[C@@H]%16O)O[C@H](CO)[C@@H](O)[C@@H]%15O)O[C@H](CO[C@]%15(CO)O[C@H](CO)[C@@H](O)[C@@H]%15O)[C@@H](O)[C@@H]%14O)O[C@H](CO)[C@@H](O)[C@@H]%13O)O[C@H](CO)[C@@H](O)[C@@H]%12O)O[C@H](CO[C@]%12(CO)O[C@H](CO)[C@@H](O)[C@@H]%12O)[C@@H](O)[C@@H]%11O)O[C@H](CO)[C@@H](O)[C@@H]%10O)O[C@H](CO)[C@@H](O)[C@@H]9O)O[C@H](CO[C@]9(CO)O[C@H](CO)[C@@H](O)[C@@H]9O)[C@@H](O)[C@@H]8O)O[C@H](CO)[C@@H](O)[C@@H]7O)O[C@H](CO)[C@@H](O)[C@@H]6O)O[C@H](CO[C@]6(CO)O[C@H](CO)[C@@H](O)[C@@H]6O)[C@@H](O)[C@@H]5O)O[C@H](CO)[C@@H](O)[C@@H]4O)O[C@H](CO)[C@@H](O)[C@@H]3O)[C@@H](O)[C@@H]2O)[C@@H](O)[C@@H]1O`, the Activity in assay [1] was found to be 8.65 mmol/L; in assay [2], 10.04 mmol/L; in [3] it was 6.16 mmol/L; in assay [4], 7.05 mmol/L; in assay [5] it was 5.14 mmol/L; in assay [6], 4.7 mmol/L. Moreover, the Activity was 4.78 mmol/L in assay [7] and 4.63 mmol/L in assay [8]. The result in [9] and in assay [10] was Active.
`OC[C@H]1OC(CO)(OC[C@H]2O[C@@](CO[C@]3(CO[C@]4(CO[C@]5(CO[C@]6(CO[C@]7(CO)O[C@H](CO)[C@@H](O)[C@@H]7O)O[C@H](CO[C@]7(CO)O[C@H](CO)[C@@H](O)[C@@H]7O)[C@@H](O)[C@@H]6O)O[C@H](CO)[C@@H](O)[C@@H]5O)O[C@H](CO[C@]5(CO)O[C@H](CO)[C@@H](O)[C@@H]5O)[C@@H](O)[C@@H]4O)O[C@H](CO)[C@@H](O)[C@@H]3O)(OC[C@@]3(OC[C@@]4(OC[C@@]5(OC[C@@]6(OC[C@@]7(OC[C@@]8(OC[C@@]9(O[C@@H]%10O[C@H](CO)[C@@H](O)[C@H](O)[C@H]%10O)O[C@H](CO)[C@@H](O)[C@@H]9O)O[C@H](CO[C@]9(CO)O[C@H](CO)[C@@H](O)[C@@H]9O)[C@@H](O)[C@@H]8O)O[C@H](CO)[C@@H](O)[C@@H]7O)O[C@H](CO[C@]7(CO)O[C@H](CO)[C@@H](O)[C@@H]7O)[C@@H](O)[C@@H]6O)O[C@H](CO)[C@@H](O)[C@@H]5O)O[C@H](CO[C@]5(CO)O[C@H](CO)[C@@H](O)[C@@H]5O)[C@@H](O)[C@@H]4O)O[C@H](CO)[C@@H](O)[C@@H]3O)[C@@H](O)[C@@H]2O)[C@@H](O)[C@@H]1O` (stereo partly specified): the Activity in assay [1] is 9.35 mmol/L; in assay [2], 9.71 mmol/L; in assay [3] it was 7.25 mmol/L; in [4], 7.96 mmol/L; in assay [5], 5.44 mmol/L; in assay [6], 4.83 mmol/L. Besides, the Activity in assay [7] was 4.83 mmol/L; in assay [8], 5.13 mmol/L. Further, the result in assay [9] and in assay [10] was Active.
With `CN(CCOc1ccc(CC2SC(=O)NC2=O)cc1)c1ccccn1` (stereo unspecified) [ROSIGLITAZONE], the Activity in assay [11] is recorded as 9.58 mmol/L; in assay [12] it was 5.54 mmol/L; in assay [13] it was 5.04 mmol/L; in assay [14], 4.94 mmol/L. Further, the outcome in assay [9] and in [10] was Active.
